Test results: patent publication US5270190A, “Method for producing (R)-malic acid from maleic acid using microbial maleate hydratase” (priority 1992, dated 1993)
Read-outs that look alike come from different tables or passages of the source.

Key:
[1] = system: Brevibacterium helvolum ATCC 11822; test: Growth in basal medium with additions; assay type: cell-based; conditions: 1% addition to basal medium
Protocol: (§1) In order to obtain a culture containing a maleate hydratase activity by cultivating microorganism capable of producing this enzyme, usual cultivation methods can be used; namely cultivating in a nutrient medium containing organic compounds as a carbon source, organic and/or inorganic compounds as a nitrogen source, and mineral salts, at pH 4 to 10, at 10° to 40° C. It is preferred to add at least one compound selected from the group consisting of maleic acid and citraconic acid since a culture having high maleate hydratase activity can be obtained by the addition of such compound. The concentration of these compounds to be added in a medium is generally from about 0.1 to 3% by weight, preferably from about 0.5 to 2% by weight. The effect of these compounds is shown in Table 1 hereinbelow and Examples 1 and 2.
(§2) *Basal Medium: NH4 Cl 0.1%, KH2 PO4 0.14%, Na2

maleate hydratase = test: Induction of maleate hydratase by additions to the basal medium (specific activity of the cell sonicate supernatant); assay type: cell-based, Brevibacterium helvolum ATCC 11822; conditions: for Specific Activity (amount of (R)-malic acid formed): crude enzyme reacted with maleate at 30° C. for 60 minutes, pH 7.2
Protocol: as §1, §2
**Determined by the amount of (R)malic acid formed when reaction mixture
(total volume 2,000 μl, pH 7.2) containing 50 mM TrisHCl buffer (1,700
μl), 100 mM maleate (200 μl), and crude enzyme preparation (cells
sonicate supernatant, 100 μl) was reacted at 30° C. for 60

[2] = system: microbial maleate hydratase; assay type: biochemical
[3] = system: microbial maleate hydratase; test: Action and specificity of the enzyme (substrate); assay type: biochemical
From the text: The enzyme catalyzes a reaction in which maleic acid is hydrated to form (R)-malic acid.

Structure (SMILES): C/C(=C/C(=O)O)C(=O)O [Citraconic Acid, citraconic acid]
- Growth at 68 Hours O.D. (660 nm) [1]: 4.1
- Specific Activity (amount of (R)-malic acid formed) (maleate hydratase; 1% addition to basal medium): 3.13
- Induction Fold (maleate hydratase; 1% addition to basal medium, relative to no addition (1.0)): 4.8

Structure (SMILES): O=C(O)CN(CCN(CC(=O)O)CC(=O)O)CC(=O)O [EDTA]
- inhibition of enzyme activity [2]: no inhibition

Structure (SMILES): O=C(O)CI [IAA, iodoacetic acid]
- inhibition of enzyme activity [2]: 12%

Structure (SMILES): O=C(O)/C=C\C(=O)O [Maleic Acid, maleic acid]
- Growth at 68 Hours O.D. (660 nm) [1]: 4.5
- Induction Fold (maleate hydratase; 1 %): 3.9
- Specific Activity (amount of (R)-malic acid formed) (maleate hydratase; 1% addition to basal medium): 2.56

Structure (SMILES): CCN1C(=O)C=CC1=O [NEM, N-ethylmaleimide]
- inhibition of enzyme activity ([2]; inhibitor at 10 mM): 33%

Structure (SMILES): [Na+].[O-][I+3]([O-])([O-])[O-] [NaIO4, sodium metaperiodate]
- inhibition of enzyme activity ([2]; inhibitor concentration 1 mM): 17%

Structure (SMILES): O=C(O)c1cc[c]([Hg][Cl])cc1 [PCMB, p-chloromercuribenzoic acid]
- inhibition of enzyme activity ([2]; inhibitor concentration 1 mM): 100%

Structure (SMILES): O=S(=O)(F)Cc1ccccc1 [PMSF, phenylmethylsulfonylfluoride]
- inhibition of enzyme activity ([2]; inhibitor concentration 1 mM): no inhibition

Structure (SMILES): O=C(O)/C=C/C(=O)O [fumaric acid]
- action of the enzyme on the substance as substrate [3]: does not act
